# According to US6861439B2, “Treatment of cerebrovascular disease” (Medicure International, Inc., priority 2000, dated 2005):
# How the values were obtained:
# [1] = in water, alcohol, and ether; cited from earlier work
# [2] = test system: rat model of cerebral ischemia; assay: Rat model of cerebral ischemia: measurement of infarct damage (TTC staining); format: in vivo, Male Wistar rats; conditions: for Infarct Volume (mean): post-ischemia PLP iv, 24 hours after ischemia, control group 37.74%
# Method: (§1) Male Wistar rats (250-300 g) were housed in the animal facility for a period of 12 days and given food and water ab libitum. Animals were randomly assigned to groups (n=8/group) of a) control group b) post-ischemia PLP treatment 10 mg/kg c) post-ischemia PLP treatment […] and d) post-ischemia PLP treatment 40 mg/kg.
# (§2) The rats of each group were anaesthetized to surgical depth initially with 3% halothane, and maintained with 1.5% halothane in a 70% N2O/30% O2 (vol./vol.) mixture. Animal core temperature was maintained at approx 37° C. using a heating pad and an overhead lamp. Temperature was measured with a rectal thermometer.
# (§3) A midline longitudinal incision of approx 2.0 cm was made in the cervical area. Both common carotid arteries (CCA) were dissected from the surrounding tissue and both the right internal carotid artery (ICA) and the right external carotid artery (ECA) were exposed to a maximal length. Branches of the right ECA will be occluded with electro-coagulation and the distal portion ligated. The right CCA and ICA were occluded by temporary clamping, after which the distal end of the ECA was cut to allow catheter insertion. A loose 5.0 silk suture was tied around the proximal right ECA. A PE-50 catheter [Becton-Dickinson, N.J., USA] (0.3 mm O.D at the tip of the catheter and O.D. 0.97 in the catheter body) was attached to a […] filled with 0.5 ml bovine alpha-thrombin (Thrombostat, Parke-Davis).
# (§4) The catheter was introduced into the ICA from the ECA and CCA via a small puncture and the silk suture tied around the ECA to prevent bleeding and dislodgement. This was followed by the removal of vascular clips from the ICA and CCA. 10 ul of blood was withdrawn into the catheter and kept in place for 15 minutes for formation of a thrombin clot. Subsequently 17 mm of the catheter (calculated from the puncture site) was gently advanced through the ECA and extra-cranial portion of the ICA to approximately 2 mm from the origin of the middle cerebral artery. After temporary occlusion of the CCAs bilaterally to slow blood flow, the clot was introduced into the ICA. The clip of the contralateral CCA was removed five minutes later and the catheter was removed 10 minutes after the clot introduction. The ipsilateral ICA was then ligated prior to the removal of the clip on the right CCA, 15 minutes after clot injection. The incision was then sutured and the animals allowed to recover from anesthesia whereupon they were given free access to food & water.
# The infarcted brain tissue in the right MCA territory was differentiated using the 2,3,5-triphenyltetrazolium chloride (TTC) staining method. The rats were perfused transcardially with 120 ml 0.9% normal saline under deep anaesthesia, 24 hours after ischemia. The brain was then removed and cooled in ice-cold saline for 5 minutes after which it was dissected in the coronal plane at 2 mm intervals using a rat brain matrix and stored in 10% buffered formalin for fixing. The stained sections were colour scanned within seven days. The 2 mm thick coronal sections were placed directly on the scanning screen and scanned from rostral to caudal ends, with attention paid to soaking up formalin to prevent shadows, and the use of a black background.
# Image contrast and brightness was adjusted with Photoshop 4.0; measurements were made by manually outlining the margins of infarct areas in each section. The total volume of infarction was determined by integrating the […] of the eight chosen sections. Values were corrected for any brain edema.
# (§5) Control animals were given 3 mL saline (iv) at 2 hours following cerebral ischemia. The pre-ischemia treatment group was given PLP (10 mg/kg, iv in 3 mL) over 30 minutes 1 hour prior to ischemic insult. The post-ischemia groups received PLP at […] iv at 2 hours following cerebral ischemia.
# All data was expressed as mean±SD. […]
# [3] = test system: rat model of cerebral ischemia; assay: Rat model of cerebral ischemia: seizures, hemorrhage and mortality; conditions: for mortality (number of animals): n=8/group, 2 in control group
# [4] = test system: rat model of cerebral ischemia; assay: Rat model of cerebral ischemia: neurological deficit evaluation (neurobehavioral scores); format: in vivo, Male Wistar rats; conditions: scale 0-4, evaluation at 2 and 24 hours after thrombus
# Method: as §1, §2, §3, §4
# Neurological deficit evaluation was conducted at 2 and 24 hours after injection of thrombus. The neurological findings were scored on a four-point grade scale: no observable deficit—0; forelimb flexion—1; forelimb flexion and decreased resistance to lateral push—2; forelimb flexion, decreased lateral push resistance and unilateral circling in three successive trials—3. A score of 4 was given to animals with a score of 3 plus decreased consciousness.
# as §5
# All data was expressed as mean±SD. Two-tailed paired Students t-tests were used to compare differences between values obtained before and after treatment. Statistical analysis of more than two groups of animals were performed with ANOVA, with subsequent individual comparisons by Scheffe's test. Differences were considered significant at […].
structure (smiles),measurement,setting,value
"Cc1ncc(COP(=O)(O)O)c(C=O)c1O [PLP, 3-hydroxy-2-methyl-5-[(phosphonooxy)methyl]-4-pyridine-carboxaldehyde]",solubility,[1],essentially insoluble
same,Infarct Volume (mean),[2]; 10 mg/kg treatment group,"28.25%,"
same,Infarct Volume (mean),[2]; 20 mg/kg treatment group,"27.4%,"
same,"infarct reduction, statistical significance",[2]; 40 mg/kg dose,statistically significant
same,Infarct Volume (mean),[2]; 40 mg/kg treatment group,"19.3%,"
same,therapeutic effect on infarct size and neurobehavioral activity,"[2]; 10, 20, 40 mg/kg",dose-dependant therapeutic effect
same,anti-ischemic effect in the rat model of ischemia and reperfusion injury,[2]; overall conclusion,demonstrates anti-ischemic effects and benefits against ischemia reperfusion injury
same,mortality (number of animals),[3]; 10 mg/kg group,3
same,mortality (number of animals),[3]; 20 mg/kg group,1
same,mortality (number of animals),[3]; 40 mg/kg group,0
same,number of seizures,"[3]; the three groups (10, 20, 40 mg/kg)",no difference
same,risk of hemorrhage,[3]; with higher doses,did not increase
same,"Neurobehavioral score, final (decreased to)",[4]; 10 mg/kg group,3
same,"Neurobehavioral score, initial (decreased from)",[4]; 10 mg/kg group,3.6
same,"Neurobehavioral score, final (decreased to)",[4]; 20 mg/kg group,3
same,"Neurobehavioral score, initial (decreased from)",[4]; 20 mg/kg group,3.8
same,"Neurobehavioral score, final (decreased to)","[4]; 40 mg/kg group, p<0.001",1.9
same,"Neurobehavioral score, initial (decreased from)","[4]; 40 mg/kg group, p<0.001",3.8
